Results as given in ChEMBL document CHEMBL5634121, “Discovery of novel G9a/GLP covalent inhibitors for the treatment of triple-negative breast cancer” (Eur J Med Chem, 2023).
The source made the active and inactive calls. No cut-off for these calls is given here.

Legend:
[1] = molecular target: Histone-lysine N-methyltransferase EHMT1/EHMT2 (Homo sapiens) (UniProt Q9H9B1+Q96KQ7); assay: Inhibition of G9a/GLP in human MDA-MB-231 cells assessed as reduction in H3K9 dimethylation at 20 uM incubated for 1 day followed by compound washout and measured after 1 to 4 days; type: cell-based
[2] = tested on: MDA-MB-231; assay: Induction of apoptosis in human MDA-MB-231 cells assessed as late apoptotic cells at 5 uM incubated for 72 hrs by Annexin V and PI staining based flow cytometry analysis (reference value: 0.45 %); type: functional
[3] = tested on: MDA-MB-231; assay: Induction of apoptosis in human MDA-MB-231 cells assessed as necrotic cells at 5 uM incubated for 72 hrs by Annexin V and PI staining based flow cytometry analysis (reference value: 0.32 %); type: functional
[4] = molecular target: T1, Histone-lysine N-methyltransferase EHMT2 (Homo sapiens) (UniProt Q96KQ7); assay: Inhibition of G9a (unknown origin) at 1 uM by AlphaLISA immunodetection assay relative to control
T1 sequence (whole entry): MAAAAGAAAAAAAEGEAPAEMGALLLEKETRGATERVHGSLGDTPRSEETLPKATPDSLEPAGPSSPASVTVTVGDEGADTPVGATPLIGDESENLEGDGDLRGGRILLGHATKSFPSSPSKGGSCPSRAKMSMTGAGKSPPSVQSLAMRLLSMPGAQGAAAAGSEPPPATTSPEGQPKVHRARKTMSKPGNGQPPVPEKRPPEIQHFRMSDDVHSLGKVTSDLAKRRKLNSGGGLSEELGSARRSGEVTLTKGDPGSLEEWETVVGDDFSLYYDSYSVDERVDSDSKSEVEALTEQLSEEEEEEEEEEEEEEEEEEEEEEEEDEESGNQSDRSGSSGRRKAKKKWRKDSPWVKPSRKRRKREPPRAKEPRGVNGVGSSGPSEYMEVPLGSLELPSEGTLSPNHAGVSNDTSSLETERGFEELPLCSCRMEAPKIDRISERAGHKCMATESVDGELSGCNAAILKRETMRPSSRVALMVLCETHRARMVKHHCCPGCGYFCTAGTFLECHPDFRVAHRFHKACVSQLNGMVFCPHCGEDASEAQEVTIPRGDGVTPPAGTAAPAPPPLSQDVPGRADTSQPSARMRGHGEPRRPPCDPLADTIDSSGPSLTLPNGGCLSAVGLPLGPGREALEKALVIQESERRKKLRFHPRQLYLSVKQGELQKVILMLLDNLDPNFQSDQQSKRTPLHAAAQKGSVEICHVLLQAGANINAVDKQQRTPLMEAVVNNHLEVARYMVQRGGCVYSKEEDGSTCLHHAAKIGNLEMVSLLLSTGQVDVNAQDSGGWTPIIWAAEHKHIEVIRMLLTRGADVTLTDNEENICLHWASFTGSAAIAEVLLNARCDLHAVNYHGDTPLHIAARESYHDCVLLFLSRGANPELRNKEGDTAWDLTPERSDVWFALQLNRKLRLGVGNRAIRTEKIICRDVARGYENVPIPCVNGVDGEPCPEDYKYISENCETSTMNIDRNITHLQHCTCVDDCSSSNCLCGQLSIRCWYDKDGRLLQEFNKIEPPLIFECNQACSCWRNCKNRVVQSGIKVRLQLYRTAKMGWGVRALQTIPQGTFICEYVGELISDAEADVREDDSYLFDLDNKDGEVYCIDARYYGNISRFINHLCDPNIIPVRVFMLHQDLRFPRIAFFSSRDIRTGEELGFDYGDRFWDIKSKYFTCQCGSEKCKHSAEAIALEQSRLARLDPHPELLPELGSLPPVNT

[5] = tested on: MDA-MB-231; assay: Inhibition of colony formation in human MDA-MB-231 cells at 1 to 10 uM refreshed every 4 days for 12 days by crystal violet staining based assay; type: functional, cell-based; settings: dose 1-10 µM, time 12.0 day
[6] = tested on: MDA-MB-231; assay: Induction of apoptosis in human MDA-MB-231 cells assessed as viable cells at 20 uM incubated for 72 hrs by Annexin V and PI staining based flow cytometry analysis (reference value: 98.31 %); type: functional; settings: read-out: Activity
[7] = Cytotoxicity against human L02 cells assessed as reduction in cell viability incubated for 2 days by MTT assay; type: toxicity, cell-based
[8] = Tmax in ICR mouse at 2 mg/kg, iv measured upto 12 hrs by LC-MS/MS analysis; type: ADME, organism-based; settings: in vivo

Sequence of Histone-lysine N-methyltransferase EHMT1/EHMT2 (Homo sapiens) (Q9H9B1 whole entry, looked up, one chain of several): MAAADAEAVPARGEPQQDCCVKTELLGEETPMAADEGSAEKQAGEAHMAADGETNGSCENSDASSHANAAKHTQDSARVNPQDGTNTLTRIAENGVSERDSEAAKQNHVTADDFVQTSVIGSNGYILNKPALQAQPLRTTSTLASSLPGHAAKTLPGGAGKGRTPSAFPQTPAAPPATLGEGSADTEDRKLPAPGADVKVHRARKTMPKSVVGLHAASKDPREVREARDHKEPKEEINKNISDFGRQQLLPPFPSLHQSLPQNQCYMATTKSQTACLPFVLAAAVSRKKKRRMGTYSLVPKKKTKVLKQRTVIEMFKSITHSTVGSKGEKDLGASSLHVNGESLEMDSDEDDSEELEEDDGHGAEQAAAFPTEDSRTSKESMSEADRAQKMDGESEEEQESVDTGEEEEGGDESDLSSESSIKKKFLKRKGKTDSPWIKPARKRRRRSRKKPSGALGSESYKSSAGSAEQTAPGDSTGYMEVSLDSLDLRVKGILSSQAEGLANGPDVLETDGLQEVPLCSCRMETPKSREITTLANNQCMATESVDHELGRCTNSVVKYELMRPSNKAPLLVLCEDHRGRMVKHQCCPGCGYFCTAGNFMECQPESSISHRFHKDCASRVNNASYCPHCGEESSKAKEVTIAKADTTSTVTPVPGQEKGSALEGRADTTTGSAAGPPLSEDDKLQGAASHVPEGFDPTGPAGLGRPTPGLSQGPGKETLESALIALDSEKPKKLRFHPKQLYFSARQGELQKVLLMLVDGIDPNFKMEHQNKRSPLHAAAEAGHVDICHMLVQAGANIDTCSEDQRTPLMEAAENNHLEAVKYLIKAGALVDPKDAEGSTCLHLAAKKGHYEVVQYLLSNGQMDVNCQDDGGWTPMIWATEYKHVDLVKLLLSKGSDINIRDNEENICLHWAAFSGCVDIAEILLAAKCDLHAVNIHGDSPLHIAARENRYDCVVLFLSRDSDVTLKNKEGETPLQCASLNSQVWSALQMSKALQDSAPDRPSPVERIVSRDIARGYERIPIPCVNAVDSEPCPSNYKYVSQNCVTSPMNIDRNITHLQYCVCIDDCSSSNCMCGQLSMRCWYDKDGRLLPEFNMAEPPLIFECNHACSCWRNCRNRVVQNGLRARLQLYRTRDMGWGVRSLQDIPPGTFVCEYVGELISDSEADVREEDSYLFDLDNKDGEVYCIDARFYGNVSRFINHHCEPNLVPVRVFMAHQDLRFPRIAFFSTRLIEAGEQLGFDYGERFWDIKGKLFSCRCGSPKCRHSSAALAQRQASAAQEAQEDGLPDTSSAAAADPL

inhibition [1]: Active
inhibition [4]: 96%
Tmax [8]: 25.2 min
SMILES: C=CC(=O)Nc1cccc(-c2nc(NC3CCN(C)CC3)c3cc(OC)c(OC)cc3n2)c1
Activity [2]: 3.01%
Activity [3]: 0.93%
inhibition [5]: Active
viability at 20 µM [6]: 39.3%
IC50 at 2 days [7]: 10.3 µM
